From article PMC3847553, “Kinetic properties of “dual” orexin receptor antagonists at OX1R and OX2R orexin receptors” (Frontiers in Neuroscience, 2013)

Tests used:
human OX1R [1] = biological target: T1, human OX1R (Homo sapiens, UniProt O43613); assay: [3H]-BBAC competition binding over time, CHO-hOX1 membranes
T1 construct: expressed in transfected cells; host or cells: CHO; cells from GNF, San Diego
T1 sequence (O43613 1-425): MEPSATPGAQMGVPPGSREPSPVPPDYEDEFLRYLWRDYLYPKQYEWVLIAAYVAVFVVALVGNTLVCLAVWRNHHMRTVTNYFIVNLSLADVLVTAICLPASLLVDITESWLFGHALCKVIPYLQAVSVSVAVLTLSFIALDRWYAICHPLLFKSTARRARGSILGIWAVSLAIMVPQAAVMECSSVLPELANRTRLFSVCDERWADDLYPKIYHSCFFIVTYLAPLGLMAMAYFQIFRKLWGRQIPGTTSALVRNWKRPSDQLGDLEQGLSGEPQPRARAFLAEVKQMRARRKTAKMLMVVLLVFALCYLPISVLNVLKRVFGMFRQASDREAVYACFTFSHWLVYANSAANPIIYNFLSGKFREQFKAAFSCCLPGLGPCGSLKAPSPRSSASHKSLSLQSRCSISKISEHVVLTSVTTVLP
Excerpt: (§1) Chinese Hamster Ovary (CHO) cells stably transfected with the cDNA encoding the human OX1R (CHO-hOX1) or OX2R (CHO-hOX2) were used (kindly provided by T. Cremer and Dr. S. Geisse, NIBR Basel, Switzerland). For measurements of calcium accumulation using FLIPR® (Fluorescent Imaging Plate Reader) assay, CHO or Human Embryonic Kidney (HEK) cells stably expressing mouse, rat or human OX1R or OX2R (kindly provided by Dr. A. Chen, GNF, San Diego, CA, USA) were used. […] Cells were maintained in a humidified incubator at 37°C in 5% CO2. For crude cell membrane preparations, cells were washed and harvested in 10 mM HEPES (pH 7.5), and centrifuged at 4°C for 5 min at 2500 g. The cell pellet was either stored at −80°C or used directly.
(§2) Cell membranes were resuspended in binding assay buffer at 4°C (10 mM HEPES, pH 7.5, 0.5% (w/v) bovine serum albumin (BSA), 5 mM MgCl2, 1 mM CaCl2, and 0.05% Tween 20) and homogenized with a Polytron homogenizer at 50 Hz for 20 s. […] Radioactivity was quantified using a TopCount™ microplate counter (Perkin Elmer).
(§3) All data was analyzed using GraphPad Prism 4.0 (GraphPad, San Diego, USA). The saturation data was fit to a non-linear regression model for saturation binding with consideration for one site binding. […] Competition binding data was fit to a non-linear regression model for competition binding with consideration for variable one site binding with a non-fixed Hill slope.

human OX2R [2] = biological target: T2, human OX2R (Homo sapiens, UniProt O43614); assay: [3H]-BBAC competition binding over time, CHO-hOX2 membranes
T2 construct: expressed in transfected cells; host or cells: CHO; cells from GNF, San Diego
T2 sequence (O43614 1-444): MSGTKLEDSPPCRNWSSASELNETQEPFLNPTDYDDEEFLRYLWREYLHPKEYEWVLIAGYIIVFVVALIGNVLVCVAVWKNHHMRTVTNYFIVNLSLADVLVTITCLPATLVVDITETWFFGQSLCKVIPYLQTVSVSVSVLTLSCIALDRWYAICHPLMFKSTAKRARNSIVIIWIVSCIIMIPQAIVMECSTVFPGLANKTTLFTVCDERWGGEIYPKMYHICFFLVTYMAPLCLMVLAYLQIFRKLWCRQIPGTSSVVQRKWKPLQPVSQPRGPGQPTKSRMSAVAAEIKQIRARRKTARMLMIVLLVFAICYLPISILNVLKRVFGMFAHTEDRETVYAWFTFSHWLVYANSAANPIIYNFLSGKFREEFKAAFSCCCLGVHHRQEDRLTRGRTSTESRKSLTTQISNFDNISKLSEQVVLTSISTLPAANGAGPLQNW
Excerpt: as §1, §2, §3

OX1R [3] = assay: FLIPR calcium assay, OX1R, species not given; type: cell-based; settings: species not stated
Experimental: (§4) Determination of orexin A-stimulated calcium accumulation was performed over 2 days using FLIPR® (Fluorescent imaging plate reader from Molecular Devices-FLIPR384). Cells expressing either human, rat or mouse OX1R or OX2R were seeded at 8,000 cells/well in black 384 well clear bottom plates and incubated overnight at 37°C. The following day, medium was discarded and cells loaded with 50 μ l of 1 mM Fluo-4 AM (Invitrogen F14202) in dimethyl sulfoxide in working buffer (Hanks' balanced salt solution, 10 mM HEPES) and incubated for 60 min at 37°C. The loading buffer was removed and cells were washed with 100 μ l working buffer containing […], 0.1% BSA, and 2.5 mM Probenecid (pH 7.4) to remove the excess Fluo-4 AM. Working buffer was added and plates were incubated 10–15 min at room temperature. The assay plate was then transferred to the Molecular Devices-FLIPR384. The baseline calcium signal was recorded for 10 s, then the antagonist of interest was injected (10 μl at 3 times the final concentration) and the calcium signal recorded every second for 1 min, then every 2 s 40 times. Plates were then incubated at room temperature for 30 min, 1, 2, or 4 h.

OX2R = assay: FLIPR calcium assay, OX2R, species not given; type: cell-based; settings: species not stated
Experimental: as §4

sleep = system: sleep; set-up: method as in Fox et al., 2013; settings: rodent studies; ref Fox et al., 2013; cited from earlier work
human OX1R [4] = biological target: T1, human OX1R; assay: [3H]-BBAC saturation binding, CHO-hOX1 membranes
Excerpt: as §1, §2
(§5) Data in the figures is representative of the mean ± s.e.m. of a single experiment.
(§6) All data was analyzed using GraphPad Prism 4.0 (GraphPad, San Diego, USA). The saturation data was fit to a non-linear regression model for saturation binding with consideration for one site binding. […]

human OX2R [5] = biological target: T2, human OX2R; assay: [3H]-BBAC saturation binding, CHO-hOX2 membranes
Excerpt: as §1, §2, §5, §6

OX1R [6] = system: OX1R; set-up: method as in Sakurai et al., 1998; settings: competition radioligand binding, ref Sakurai et al., 1998; cited from earlier work

Cn1c(SCC(=O)N2CCC[C@H]2C(=O)Nc2ccccc2-c2ccccc2)nc2ccccc21 [BBAC, (S)-N-([1,1′-biphenyl]-2-yl)-1-(2-((1-methyl-1H-benzo[d]imidazol-2-yl)thio)acetyl)pyrrolidine-2-carboxamide]
effect of incubation time on competition curves (human OX1R [1]; competition for 4.6 nM [3H]-BBAC, 15 min to 4 h, human OX1R): no significant difference in IC50 values measured between 30 min and 4 h
time to reach equilibrium (human OX1R [1]; competition for [3H]-BBAC, OX1R): 15 to 30 min
effect of incubation time on competition curves (human OX2R [2]; competition for 4.6 nM [3H]-BBAC, 15 min to 4 h, human OX2R): no significant difference in IC50 values measured between 30 min and 4 h
time to reach equilibrium (human OX2R [2]; competition for [3H]-BBAC, OX2R): 15 to 30 min
effect of incubation time on potency in calcium assay (OX1R [3]): constant potency values irrespective of the incubation time
effect of incubation time on potency in calcium assay (OX2R): constant potency values irrespective of the incubation time

C[C@@H]1CC[C@@H](COc2ccc(F)cn2)CN1C(=O)c1cc(F)ccc1-c1ncccn1 [DORA-22]
effect on sleep (sleep): promotes sleep with dose-dependent increases in REM sleep

Cn1c(SCC(=O)N2CCC[C@H]2C(=O)Nc2ccccc2-c2ccccc2)nc2ccccc21 [[^3H]-BBAC, (S)-N-([1,1′-biphenyl]-2-yl)-1-(2-((1-methyl-1H-benzo[d]imidazol-2-yl)thio)acetyl)pyrrolidine-2-carboxamide]
incubation time sufficient to reach Bmax and KD values comparable to 4 h (human OX1R [4]): 15 to 30 min
Kd (human OX2R [5]; CHO-hOX2 membranes, room temperature): ~1 nM
incubation time sufficient to reach Bmax and KD values comparable to 4 h (human OX2R [5]; OX2R): 15 to 30 min

orexin B: endogenous orexin peptide
affinity (OX1R [6]): 250 nM
